GI50 and TGI data for 8 compounds are collected here from PubChem BioAssay (NCI).

“And” between values parts separate entries of the source, which are not always exact repeats. Equal values may be shown once.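 48-hour exposure; five concentrations; linearly interpolated endpoints. GI50: concentration for 50% inhibition of growth. The concentration for full growth arrest is given as TGI.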

Test systems include A498 renal; A549 NSCLC; ACHN renal; HCT-116 colon; HS 578T breast; MCF7 breast; MOLT-4 leukemia; NCI-H23 lung; OVCAR-4 ovarian; TK-10 renal.
Test in all cases: NCI anticancer screen, dose series, 48 h

On to `Cc1nn2c(/C=C3/C(=O)Nc4ccc(Cl)cc43)c(-c3ccccc3)nc2s1`, for which the GI50 in the test with A498 renal is 1.63 µM; in the test on A549 NSCLC, 2.25 µM; with ACHN renal it was 2.96 µM; in the test with HCT-116 colon, 1.9 µM; in the test on HS 578T breast, 2.45 µM; in the test with MCF7 breast it was 3.85 µM. The GI50 is 6.96 µM in the test on MOLT-4 leukemia, 4.1 µM with NCI-H23 lung, 1.66 µM in the test with OVCAR-4 ovarian and 3.3 µM in the test with TK-10 renal. Moreover, the TGI in the test with A498 renal amounted to 10.6 µM; with A549 NSCLC, 5.51 µM; in the test on ACHN renal, 14.4 µM; in the test with HCT-116 colon, 4.61 µM; in the test on HS 578T breast, 7.79 µM; in the test on MCF7 breast, 25 µM. Further, the TGI with MOLT-4 leukemia was 37.1 µM; in the test with NCI-H23 lung it was greater than 100 µM; in the test with OVCAR-4 ovarian, 3.64 µM; with TK-10 renal, 8.79 µM.

Regarding `Cc1ccc(NS(=O)(=O)c2cc(C)ccc2C)cc1`, the GI50 was 2.54 µM with A498 renal; 4.78 µM in the test on A549 NSCLC; 12.7 µM in the test with ACHN renal; 3.55 µM with HCT-116 colon; 10.9 µM in the test with HS 578T breast; 3.59 µM with MCF7 breast. In addition, the GI50 in the test on MOLT-4 leukemia is 5.43 µM; in the test on NCI-H23 lung, 4.65 µM; in the test with OVCAR-4 ovarian, 20.9 µM; in the test on TK-10 renal, 10.2 µM. Also, the TGI was found to be 15.4 µM in the test with A498 renal; 38 µM in the test with A549 NSCLC; 90 µM with ACHN renal; 20.4 µM in the test with HCT-116 colon; 77.7 µM in the test with HS 578T breast; 83 µM in the test with MCF7 breast. Moreover, the TGI was greater than 100 µM in the test on MOLT-4 leukemia, 50.5 µM with NCI-H23 lung, greater than 100 µM in the test with OVCAR-4 ovarian and 37.7 µM with TK-10 renal.

For `Cc1c(CN2CCC(Nc3ncnc4sc(CC(F)(F)F)cc34)CC2)ccc2c1cc(C#N)n2Cc1cn[nH]c1`, the GI50 was 7.55 µM in the test on A498 renal; 8.31 µM and 10.1 µM with A549 NSCLC; 4.47 µM and 10.7 µM in the test with ACHN renal; 1.12 µM and 1.99 µM in the test with HCT-116 colon; 6.23 µM and 10.1 µM in the test with HS 578T breast; 1.59 µM and 2.01 µM in the test on MCF7 breast. Further, the GI50 with MOLT-4 leukemia was 1.91 µM and 1.98 µM; with NCI-H23 lung, 1.33 µM and 2.23 µM; with OVCAR-4 ovarian, 2.2 µM and 1.77 µM; in the test on TK-10 renal, 11.6 µM and > 35.2 µM. The TGI in the test with A498 renal was 79.4 µM and > 39.1 µM; in the test on A549 NSCLC, 23.3 µM; in the test with ACHN renal, 19.5 µM and > 38 µM; in the test with HCT-116 colon it was 2.4 µM; in the test with HS 578T breast, greater than 68.3 µM; in the test on MCF7 breast, 3.75 µM and 8.6 µM. Besides, the TGI in the test with MOLT-4 leukemia was 9.55 µM; in the test with NCI-H23 lung, 18.9 µM; with OVCAR-4 ovarian it was 22.3 µM; with TK-10 renal, 26.2 µM and > 52.3 µM.

`Cn1c2ccccc2c2nnc(N/N=C/c3ccccn3)nc21`: the GI50 with A498 renal was 0.396 µM; with A549 NSCLC, 0.461 µM; in the test with ACHN renal, 0.35 µM; with HCT-116 colon it was 0.349 µM; with HS 578T breast, 2.06 µM; with MCF7 breast, 0.285 µM. The GI50 with MOLT-4 leukemia was 0.271 µM; in the test on NCI-H23 lung it was 0.382 µM; in the test with OVCAR-4 ovarian, 0.419 µM; in the test on TK-10 renal, 0.413 µM. The TGI was 5.05 µM in the test with A498 renal; greater than 27.5 µM with A549 NSCLC; greater than 21.4 µM in the test with ACHN renal; greater than 38.4 µM in the test on HCT-116 colon; 82.9 µM in the test on HS 578T breast; 6.59 µM in the test on MCF7 breast. In addition, the values for the TGI in the test on NCI-H23 lung, in the test on OVCAR-4 ovarian and in the test with TK-10 renal were greater than 22.6 µM, greater than 58.9 µM and greater than 57.8 µM, respectively.

In the case of `CCS(=O)(=O)c1ccc(OC)c(Nc2nccc(N(C)c3ccc4c(C)[nH]nc4c3)n2)c1`, the GI50 with A498 renal was 1.18 µM; with A549 NSCLC it was 9.83 µM; in the test on ACHN renal it was 5.95 µM; in the test on HCT-116 colon, 8.69 µM; with HS 578T breast, 2.69 µM; in the test with MCF7 breast it was 9.16 µM. Also, the GI50 with MOLT-4 leukemia was 6.71 µM; in the test on NCI-H23 lung, 6.05 µM; in the test on OVCAR-4 ovarian it was 5.66 µM; with TK-10 renal, 5.15 µM. The TGI with A498 renal is 6.58 µM; in the test with A549 NSCLC, greater than 25 µM; in the test with ACHN renal, greater than 24.1 µM; in the test with HCT-116 colon, greater than 25 µM; in the test with HS 578T breast, 14.4 µM; with MCF7 breast, greater than 25 µM. In addition, the TGI in the test on MOLT-4 leukemia was greater than 25 µM; in the test with NCI-H23 lung, greater than 25 µM; with OVCAR-4 ovarian, greater than 25 µM; in the test with TK-10 renal, 14.5 µM.

`COc1ccc(C2=C(c3cn(C)c4ccccc34)C(=O)NC2=O)cc1OC`: the GI50 in the test on A498 renal is 3.43 µM; in the test on A549 NSCLC it was 8.44 µM; in the test with ACHN renal, 6.35 µM; in the test on HCT-116 colon, 6.68 µM; in the test on HS 578T breast, 3.85 µM; with MCF7 breast, 5.75 µM. Also, the GI50 is 8.84 µM in the test on MOLT-4 leukemia, 10.3 µM in the test with NCI-H23 lung, 10.6 µM with OVCAR-4 ovarian and 9.2 µM in the test on TK-10 renal. Also, the TGI in the test on A498 renal was 8.95 µM; in the test on A549 NSCLC it was greater than 25 µM; in the test on ACHN renal, greater than 25 µM; with HCT-116 colon, greater than 25 µM; in the test on HS 578T breast it was greater than 20.6 µM; in the test with MCF7 breast it was greater than 25 µM. Further, the TGI with MOLT-4 leukemia, with NCI-H23 lung, with OVCAR-4 ovarian and in the test on TK-10 renal was greater than 25 µM throughout.

In the case of `COC[C@H]1OC(=O)c2coc3c2[C@@]1(C)C1=C(C3=O)[C@@H]2CCC(=O)[C@@]2(C)C[C@H]1OC(C)=O`, the GI50 in the test with A498 renal was 0.58 µM; in the test on HS 578T breast, 0.341 µM; in the test with OVCAR-4 ovarian, 18.6 µM. Further, the TGI in the test with A498 renal was 17.3 µM; in the test with A549 NSCLC it was greater than 100 µM; in the test on ACHN renal, greater than 100 µM; with HCT-116 colon it was greater than 100 µM; in the test on HS 578T breast it was 6.9 µM; with MCF7 breast, greater than 100 µM. Moreover, the TGI in the test on MOLT-4 leukemia was 42.3 µM; with NCI-H23 lung it was greater than 100 µM; with OVCAR-4 ovarian it was greater than 100 µM; in the test on TK-10 renal, greater than 100 µM.

`CCOC(=O)C(Cc1c[nH]c2cc([N+](=O)[O-])ccc12)(NC(C)=O)C(=O)OCC`: the GI50 with A498 renal was 55.3 µM; in the test with ACHN renal, 178 µM; with HCT-116 colon it was 390 µM; with HS 578T breast it was 61.3 µM; in the test on MOLT-4 leukemia, 35.2 µM; in the test with NCI-H23 lung, 138 µM. Also, the GI50 with OVCAR-4 ovarian is greater than 1000 µM; in the test on TK-10 renal it was 296 µM. Also, the TGI is 203 µM in the test with A498 renal; greater than 1000 µM in the test with A549 NSCLC; greater than 1000 µM in the test on ACHN renal; greater than 1000 µM with HCT-116 colon; greater than 798 µM in the test on HS 578T breast; greater than 1000 µM in the test on MCF7 breast. For the same compound, the values for the TGI with NCI-H23 lung, with OVCAR-4 ovarian and with TK-10 renal were greater than 1000 µM, greater than 1000 µM and greater than 760 µM, respectively.
